Test results published in the NIST ThermoML archive (doi:10.1016/j.fluid.2010.03.040).

Conditions: Capillary rise

COCCOC [1,2-dimethoxyethane]
Conditions	surface tension liquid-gas [mN/m]
278.17 K	26.52
283.17 K	25.97
288.18 K	25.28
293.17 K	24.67
298.03 K	23.94
303.15 K	23.42
308.12 K	22.84
313.16 K	22.25
318.17 K	21.56
323.18 K	21.02
328.17 K	20.41
333.17 K	19.83
338.17 K	19.29
343.17 K	18.74
348.17 K	18.12
353.18 K	17.59
358.17 K	16.91
363.17 K	16.35
368.17 K	15.74
373.17 K	15.23

CCOC(=O)OCC [diethyl carbonate]
Conditions	surface tension liquid-gas [mN/m]
273.18 K	29.15
278.18 K	28.63
283.18 K	28.07
288.18 K	27.48
293.16 K	26.81
298.1 K	26.26
303.17 K	25.64
308.11 K	25.14
313.19 K	24.48
318.16 K	24.03
323.16 K	23.47
328.12 K	22.98
333.18 K	22.35
338.17 K	21.81
343.17 K	21.23
348.17 K	20.69
353.19 K	20.16
358.18 K	19.64
363.16 K	19.13
368.18 K	18.69
373.17 K	18.01

CCOC(=O)CCCCC(=O)OCC [diethyl hexanedioate]
Conditions	surface tension liquid-gas [mN/m]
293.16 K	32.7
298.09 K	32.2
303.17 K	31.6
308.11 K	31
313.18 K	30.3
318.15 K	29.7
323.17 K	29.2
328.12 K	28.7
333.16 K	28.3
338.16 K	27.7
343.15 K	27.2
348.13 K	26.6
353.16 K	26.2
358.13 K	25.8
363.13 K	25.3
368.15 K	24.8
373.14 K	24.3
